Where two headings read alike, the source gives them in different places.
Assays:
[1] = 1 µM concentration; cited from earlier work
Excerpt: A full comparison of EC50 values is difficult since ...

[2] = test system: dystrophin pre-mRNA exon 23 in C2C12 myotubes; experiment: Exon 23 skipping by nested RT-PCR in differentiated C2C12 myotubes; type: cell-based, mouse; conditions: serum-containing transfection media, 24 h post-treatment
Experimental: Figure S3. Exon skipping efficiency of Pip6a-PMO in C2C12 skeletal muscle cells. C2C12 cells were differentiated for 6 days and thereafter incubated with Pip6a-PMO under serum condition (+S). Transfections were carried out for 4 h under serum conditions and cells were incubated further with serum-containing medium for 20 h. Exon skipping efficiency was evaluated on pre-mRNA levels by nested RT-PCR. Products were separated by gel electrophoresis and exon skipping values were derived from densitometric analysis. (Percentage of exon skipping (%ES) calculated as described in Figure S1 with n≥4).

[3] = test system: dystrophin pre-mRNA exon 23 in H2k mdx myotubes; experiment: Exon 23 skipping by nested RT-PCR in differentiated H2k mdx myotubes; type: cell-based, mouse
[4] = test system: dystrophin pre-mRNA exon 23 in primary wild-type cardiomyocytes; experiment: Exon 23 skipping by nested RT-PCR in primary wild-type cardiomyocytes; type: cell-based, mouse; conditions: for %ES (percentage of exon skipping): 1000 nM, WT (healthy) cardiomyocytes, serum-containing medium, 24 h post-treatment, n ≥ 4
[5] = test system: dystrophin pre-mRNA exon 23 in primary mdx cardiomyocytes; experiment: Exon 23 skipping by nested RT-PCR in primary mdx cardiomyocytes; type: cell-based, mouse
[6] = test system: dystrophin pre-mRNA exon 23 in H2k mdx myoblasts; experiment: Exon 23 skipping by nested RT-PCR in undifferentiated H2k mdx myoblasts; type: cell-based, mouse
H2k mdx myotubes = experiment: Cellular uptake by fluorescence spectroscopy in H2k mdx myotubes
Experimental: After incubation with 3′-fluorescein labelled Pip6a-PMO or 3′-fluorescein-labelled PMO, cells were washed twice with PBS and lysed with 300 µl GLB buffer (Promega). In all, 100 µl of the lysate were transferred into black non-binding 96-well plates (Greiner) and fluorescence was measured on a Tecan plate reader (Ex 485 nm/Em 520 nm). Protein concentration was measured by a BCA kit (Pierce) on a Tecan plate reader (Abs 560 nm).

In the case of “(RXRRBR)2 [B-PMO, PMO covalently linked to the (RXRRBR)2 B-peptide, previously described PPMO]”, the reported exon-skipping level [1] is given as about 45%.
For “Ac-RXRRBRRXRYQFLIRXRBRXRB-OH [Pip6a-PMO]”, the EC50 [2] was 107 nM, the exon skipping ([3]; 1 µM, statement of the discussion) was “complete exon skipping” and the EC50 ([3]; 48 h post-treatment (4 h transfection, then 44 h serum-containing medium), serum condition (+S), read-out: EC50 at 48 h (exon 23 skipping)) was 20 nM. The EC50 ([3]; serum-free medium (-S), 24 h post-treatment, Prism 5.0 after normalization of the Δ23 skipping, read-out: EC50 (concentration required to achieve 50% exon 23 skipping)) was 41 nM, the EC50 ([3]; serum-supplemented transfection medium (+S), 24 h post-treatment, Prism 5.0 after normalization, read-out: EC50 (exon 23 skipping)) was 30 nM and the “%ES (percentage of exon skipping)” value [4] was 44%. For the same substance, the “change of exon skipping with 48 h incubation” value ([4]; 48 h post-treatment compared with 24 h, primary wild type cardiomyocytes, Supplementary Figure S7) was “did not increase significantly”, the EC50 ([5]; primary cardiomyocytes from neonatal mdx and wild-type mice, not distinguished, approximate) was about 1000 nM and the “EC50 in H2k mdx myoblasts relative to H2k mdx myotubes” value ([6]; 183 nM in myoblasts compared with myotubes) was about 6 times. For the same substance, the EC50 ([6]; undifferentiated H2k mdx myoblasts, data not shown) was 183 nM, the “effect of EIPA on cellular delivery and exon-skipping activity” value (H2k mdx myotubes; 250 nM, 4 h, EIPA 10 µM, 30 min pre-treatment, n ≥ 4) was “only negligible effects” and the “effect of CPZ on cellular delivery and exon-skipping activity” value (H2k mdx myotubes; 250 nM, 4 h, chlorpromazine 30 µM, 30 min pre-treatment, n ≥ 4) was “only negligible effects”. For the same substance, the “effect of nystatin on uptake and exon 23-skipping efficiency” value (H2k mdx myotubes; 250 nM, 4 h, nystatin 50 µM, 30 min pre-treatment, n ≥ 4) was “pronounced effect” and the “increase of uptake in myotubes versus myoblasts” value (H2k mdx myotubes; H2k mdx cells, 4 h incubation, fluorescence spectroscopy) was 2 fold.
In the case of “PMO: phosphorodiamidate morpholino oligomer 5′-GGCCAAACCTCGGCTTACCTGAAAT-3′ with 5′-amino linker and 3′-fluorescein label, Gene Tools (morpholino, 5'-amino linker, 3'-fluorescein, chemistry not fully specified) [reference compound]”, the “%ES (percentage of exon skipping)” value ([4]; listed as naked PMO) is reported as “failed to induce any exon skipping”, the “%ES (percentage of exon skipping)” value ([5]; 1000 nM, mdx cardiomyocytes, serum-containing medium, 24 h post-treatment, n ≥ 4, listed as naked PMO) is reported as “failed to induce any exon skipping” and the “cellular uptake (fluorescence)” value (H2k mdx myotubes; 1000 nM, 4 h incubation, cell lysate fluorescence Ex 485 nm/Em 520 nm) is reported as “no uptake”.

— publication PMC3950666, “Cellular trafficking determines the exon skipping activity of Pip6a-PMO in mdx skeletal and cardiac muscle cells” (Nucleic Acids Research, 2013)
